The values that follow come from patent publication US9029325B2, “Amylin analogues and pharmaceutical compositions thereof” (Novo Nordisk A/S, priority 2011, dated 2015).

The nature of the data set: Assay (III) ThT fibrillation assay for physical stability. The class given is physicochemical. The note with it: for Th T pH 4.0 lag time (h): 37° C., orbital shaking 960 rpm; for ThT pH 4.0 lag time: Table 9. From the text:
Low physical stability of a polypeptide may lead to amyloid fibril formation, which is observed as well-ordered, thread-like macromolecular structures in the sample eventually resulting in gel formation. This has traditionally been measured by visual inspection of the sample. However, that kind of measurement is very subjective and depending on the observer. Therefore, the application of a small molecule indicator probe is much more advantageous. Thioflavin T (ThT) is such a probe and has a distinct fluorescence signature when binding to fibrils [Naiki et al. (1989) Anal. Biochem. 177, 244-249; LeVine (1999) Methods. Enzymol. […], 274-284].
The time course for fibril formation can be described by a sigmoidal curve with the following expression [Nielsen et al. (2001) Biochemistry 40, 6036-6046]:
[formula] Here, F is the ThT fluorescence at the time t. The constant t0 is the time needed to reach 50% of maximum fluorescence. The two important parameters describing fibril formation are the lag-time calculated by t0−2T and the apparent rate constant kapp=1/τ.
Few of those intermediates nucleate to form a template onto which further intermediates may assembly and the fibrillation proceeds. The lag-time corresponds to the interval in which the critical mass of nucleus is built up and the apparent rate constant is the rate with which the fibril itself is formed.
Samples were prepared freshly before each assay. Each sample composition is described in each example. The pH of the sample was adjusted to the desired value using appropriate amounts of concentrated NaOH and HClO4 or HCl. Thioflavin T was added to the samples from a stock solution in H2O to a final concentration of 1 μM.
Sample aliquots of 200 μl were placed in a 96 well microtiter plate (Packard OptiPlate™-96, white polystyrene). Usually, four or eight replica of each sample (corresponding to one test condition) were placed in one column of wells. The plate was sealed with Scotch Pad (Qiagen).
Incubation at given temperature, shaking and measurement of the ThT fluorescence emission were done in a Fluoroskan Ascent FL fluorescence platereader or Varioskan platereader (Thermo Labsystems). The temperature was adjusted to 37° C. The orbital shaking was adjusted to 960 rpm with an amplitude of 1 mm in all the presented data. Fluorescence measurement was done using excitation through a 444 nm filter and measurement of emission through a 485 nm filter.
Each run was initiated by incubating the plate at the assay temperature for 10 min. The plate was measured every 20 minutes for a desired period of time. Between each measurement, the plate was shaken and heated as described.
The measurement points were saved in Microsoft Excel format for further processing and curve drawing and fitting was performed using GraphPad Prism. The background emission from ThT in the absence of fibrils was negligible. The data points are typically a mean of four or eight samples and shown with standard deviation error bars. Only data obtained in the same experiment (i.e. samples on the same plate) are presented in the same graph ensuring a relative measure of fibrillation […].
The data set may be fitted to Eq. (1). However, since full sigmodial curves in this case are not always achieved during the measurement time, the degree of fibrillation is expressed as ThT fluorescence tabulated as the mean of the samples and shown with the standard deviation at various time points.
The polypeptide concentration in each of the tested formulations were measured both before application in the ThT fibrillation assay (“Initial”) and after completion of the ThT fibrillation (“After ThT assay”). Concentrations were determined by reverse HPLC methods using a pramlintide standard as a reference. Before measurement after completion 150 μl was collected from each of the replica and transferred to an Eppendorf tube. These were centrifuged at 30000 G for 40 mins. […]

Starred links: 1 amine or outer side, 2 acyl side, 3 side chain; linkers in the order of their positions; H or OH if unused. Positions of bridges follow the written chain, without caps; N, C: chain ends. Residues, ends and D or L forms follow the SMILES beside them. *: point of attachment. C20 diacid = O=C(O)CCCCCCCCCCCCCCCCCCC(=O)*; γGlu = O=C(O)[C@H](CCC(=O)[*:2])N[*:1]

For the compound `CC[C@H](C)[C@H](NC(=O)[C@@H]1CCCN1C(=O)CNC(=O)[C@H](Cc1ccccc1)NC(=O)[C@H](CC(N)=O)NC(=O)[C@H](CCC(N)=O)NC(=O)[C@H](CO)NC(=O)[C@H](CO)NC(=O)[C@H](Cc1c[nH]cn1)NC(=O)[C@H](CCCNC(=N)N)NC(=O)[C@H](CC(C)C)NC(=O)[C@H](Cc1ccccc1)NC(=O)[C@H](CCC(=O)O)NC(=O)[C@H](C)NC(=O)[C@H](CC(C)C)NC(=O)[C@H](CCCNC(=N)N)NC(=O)[C@H](CCC(N)=O)NC(=O)[C@@H](NC(=O)[C@H](C)NC(=O)[C@@H]1CSSC[C@H](NC(=O)[C@H](CCC(=O)O)NC(=O)[C@H](CCCNC(=N)N)NC(=O)[C@H](CCC(=O)O)NC(=O)CC[C@H](NC(=O)CCCCCCCCCCCCCCCCCCC(=O)O)C(=O)O)C(=O)N[C@@H](CC(N)=O)C(=O)N[C@@H]([C@@H](C)O)C(=O)N[C@@H](C)C(=O)N[C@@H]([C@@H](C)O)C(=O)N1)[C@@H](C)O)C(=O)N[C@@H](CC(C)C)C(=O)N1CCC[C@H]1C(=O)N1CCC[C@H]1C(=O)N[C@H](C(=O)N[C@@H](CCC(N)=O)C(=O)N[C@H](C(=O)NCC(=O)N[C@@H](CO)C(=O)N[C@@H](CCC(N)=O)C(=O)N[C@H](C(=O)N1CCC[C@H]1C(N)=O)[C@@H](C)O)C(C)C)[C@@H](C)O` [Example 163, N-alpha-[(S)-4-Carboxy-4-(19-carboxynonadecanoylamino)butyryl]-Glu-Arg-[Glu1, Glu14, Arg17, Gln21, Gln31, Gln35, Pro37]-pramlintide] ({C20 diacid-γGlu}-ERECNTATCATQRLAEFLRHSSQNFGPILPPTQVGSQTP-NH2; disulfide 4-9), the “Th T pH 4.0 lag time (h)” value was >45 h and the “ThT pH 4.0 lag time” value is >45 hr.

Regarding `CC[C@H](C)[C@H](NC(=O)[C@@H]1CCCN1C(=O)CNC(=O)[C@H](Cc1ccccc1)NC(=O)[C@H](CC(N)=O)NC(=O)[C@H](CCC(N)=O)NC(=O)[C@H](CO)NC(=O)[C@H](CO)NC(=O)[C@H](Cc1c[nH]cn1)NC(=O)[C@H](Cc1c[nH]cn1)NC(=O)[C@H](CC(C)C)NC(=O)[C@H](Cc1ccccc1)NC(=O)[C@H](CCC(=O)O)NC(=O)[C@H](C)NC(=O)[C@H](CC(C)C)NC(=O)[C@H](CCCNC(=N)N)NC(=O)[C@H](CCC(N)=O)NC(=O)[C@@H](NC(=O)[C@H](C)NC(=O)[C@@H]1CSSC[C@H](NC(=O)[C@H](CCCCN)NC(=O)CC[C@H](NC(=O)CCCCCCCCCCCCCCCCCCC(=O)O)C(=O)O)C(=O)N[C@@H](CC(N)=O)C(=O)N[C@@H]([C@@H](C)O)C(=O)N[C@@H](C)C(=O)N[C@@H]([C@@H](C)O)C(=O)N1)[C@@H](C)O)C(=O)N[C@@H](CC(C)C)C(=O)N1CCC[C@H]1C(=O)N1CCC[C@H]1C(=O)N[C@H](C(=O)N[C@@H](CC(N)=O)C(=O)N[C@H](C(=O)NCC(=O)N[C@@H](CO)C(=O)N[C@@H](CC(N)=O)C(=O)N[C@H](C(=O)N1CCC[C@H]1C(N)=O)[C@@H](C)O)C(C)C)[C@@H](C)O` [Example 130, N-alpha-[(S)-4-Carboxy-4-(19-carboxynonadecanoylamino)butyryl]-[Glu14, His17, Gln21, Pro37]-pramlintide] ({C20 diacid-γGlu}-KCNTATCATQRLAEFLHHSSQNFGPILPPTNVGSNTP-NH2; disulfide 2-7 (inferred); C-terminus assumed), the “Th T pH 4.0 lag time (h)” value is recorded as >45 h and the “ThT pH 4.0 lag time” value is on record as >45 hr.

In the case of `CC[C@H](C)[C@H](NC(=O)[C@@H]1CCCN1C(=O)CNC(=O)[C@H](Cc1ccccc1)NC(=O)[C@H](CC(N)=O)NC(=O)[C@H](CC(N)=O)NC(=O)[C@H](CO)NC(=O)[C@H](CO)NC(=O)[C@H](Cc1c[nH]cn1)NC(=O)[C@H](CCCNC(=N)N)NC(=O)[C@H](CC(C)C)NC(=O)[C@H](Cc1ccccc1)NC(=O)[C@H](CCC(=O)O)NC(=O)[C@H](C)NC(=O)[C@H](CC(C)C)NC(=O)[C@H](CCCNC(=N)N)NC(=O)[C@H](CCC(N)=O)NC(=O)[C@@H](NC(=O)[C@H](C)NC(=O)[C@@H]1CSSC[C@H](NC(=O)CNC(=O)CC[C@H](NC(=O)CCCCCCCCCCCCCCCCCCC(=O)O)C(=O)O)C(=O)N[C@@H](CC(N)=O)C(=O)N[C@@H]([C@@H](C)O)C(=O)N[C@@H](C)C(=O)N[C@@H]([C@@H](C)O)C(=O)N1)[C@@H](C)O)C(=O)N[C@@H](CC(C)C)C(=O)N1CCC[C@H]1C(=O)N1CCC[C@H]1C(=O)N[C@H](C(=O)N[C@@H](CC(N)=O)C(=O)N[C@H](C(=O)NCC(=O)N[C@@H](CO)C(=O)N[C@@H](CC(N)=O)C(=O)N[C@H](C(=O)N1CCC[C@H]1C(N)=O)[C@@H](C)O)C(C)C)[C@@H](C)O` [Example 88, N-alpha-[(S)-4-Carboxy-4-(19-carboxynonadecanoylamino)butyryl]-[Gly1, Glu14, Arg17, Pro37]-pramlintide] ({C20 diacid-γGlu}-GCNTATCATQRLAEFLRHSSNNFGPILPPTNVGSNTP-NH2; disulfide 2-7 (inferred); C-terminus assumed), the “Th T pH 4.0 lag time (h)” value is >45 h and the “ThT pH 4.0 lag time” value is listed as >45 hr.

Take `CC[C@H](C)[C@H](NC(=O)[C@@H]1CCCN1C(=O)CNC(=O)[C@H](Cc1ccccc1)NC(=O)[C@H](CC(N)=O)NC(=O)[C@H](CC(N)=O)NC(=O)[C@H](CO)NC(=O)[C@H](CO)NC(=O)[C@H](Cc1c[nH]cn1)NC(=O)[C@H](Cc1c[nH]cn1)NC(=O)[C@H](CC(C)C)NC(=O)[C@H](Cc1ccccc1)NC(=O)[C@H](CCC(=O)O)NC(=O)[C@H](C)NC(=O)[C@H](CC(C)C)NC(=O)[C@H](CCCCN)NC(=O)[C@H](CCC(N)=O)NC(=O)[C@@H](NC(=O)[C@H](C)NC(=O)[C@@H]1CSSC[C@H](NC(=O)[C@H](CCCCN)NC(=O)CC[C@H](NC(=O)CCCCCCCCCCCCCCCCCCC(=O)O)C(=O)O)C(=O)N[C@@H](CC(N)=O)C(=O)N[C@@H]([C@@H](C)O)C(=O)N[C@@H](C)C(=O)N[C@@H]([C@@H](C)O)C(=O)N1)[C@@H](C)O)C(=O)N[C@@H](CC(C)C)C(=O)N1CCC[C@H]1C(=O)N1CCC[C@H]1C(=O)N[C@H](C(=O)N[C@@H](CC(N)=O)C(=O)N[C@H](C(=O)NCC(=O)N[C@@H](CO)C(=O)N[C@@H](CC(N)=O)C(=O)N[C@H](C(=O)N1CCC[C@H]1C(N)=O)[C@@H](C)O)C(C)C)[C@@H](C)O` [Example 145, N-alpha-[(S)-4-Carboxy-4-(19-carboxynonadecanoylamino)butyryl]-[Lys11, Glu14, His17, Pro37]-pramlintide] ({C20 diacid-γGlu}-KCNTATCATQKLAEFLHHSSNNFGPILPPTNVGSNTP-NH2; disulfide 2-7): the “Th T pH 4.0 lag time (h)” value is recorded as >45 h and the “ThT pH 4.0 lag time” value is given as >45 hr.

For `CC[C@H](C)[C@H](NC(=O)[C@@H]1CCCN1C(=O)CNC(=O)[C@H](Cc1ccccc1)NC(=O)[C@H](CC(N)=O)NC(=O)[C@H](CC(N)=O)NC(=O)[C@H](CO)NC(=O)[C@H](CO)NC(=O)[C@H](Cc1c[nH]cn1)NC(=O)[C@H](Cc1c[nH]cn1)NC(=O)[C@H](CC(C)C)NC(=O)[C@H](Cc1ccccc1)NC(=O)[C@H](CCC(=O)O)NC(=O)[C@H](C)NC(=O)[C@H](CC(C)C)NC(=O)[C@H](CCCNC(=N)N)NC(=O)[C@H](CCC(N)=O)NC(=O)[C@@H](NC(=O)[C@H](C)NC(=O)[C@@H]1CSSC[C@H](NC(=O)[C@H](CCCCN)NC(=O)CC[C@H](NC(=O)CCCCCCCCCCCCCCCCCCC(=O)O)C(=O)O)C(=O)N[C@@H](CC(N)=O)C(=O)N[C@@H]([C@@H](C)O)C(=O)N[C@@H](C)C(=O)N[C@@H]([C@@H](C)O)C(=O)N1)[C@@H](C)O)C(=O)N[C@@H](CC(C)C)C(=O)N1CCC[C@H]1C(=O)N1CCC[C@H]1C(=O)N[C@H](C(=O)N[C@@H](CC(N)=O)C(=O)N[C@H](C(=O)NCC(=O)N[C@@H](CO)C(=O)N[C@@H](CCC(N)=O)C(=O)N[C@H](C(=O)N1CCC[C@H]1C(N)=O)[C@@H](C)O)C(C)C)[C@@H](C)O` [Example 135, N-alpha-[(S)-4-Carboxy-4-(19-carboxynonadecanoylamino)butyryl]-[Glu14, His17, Gln35, Pro37]-pramlintide] ({C20 diacid-γGlu}-KCNTATCATQRLAEFLHHSSNNFGPILPPTNVGSQTP-NH2; disulfide 2-7), the “Th T pH 4.0 lag time (h)” value is >45 h and the “ThT pH 4.0 lag time” value is listed as >45 hr.
